Experimental data reported in patent US12514832B2, “Methods for using low-dose colchicine after myocardial infarction” (INSTITUT DE CARDIOLOGIE DE MONTREAL, priority 2019, dated 2026).

Test system: patients recruited within 30 days after a myocardial infarction
Assay: COLCOT randomized, double-blind, placebo-controlled trial: clinical efficacy end points
Assay type: in vivo, human
Design: Primary efficacy composite endpoint, % of patients with event: concentration or dose not given beside the values
Settings: for risk of ischemic cardiovascular events / primary composite efficacy end point versus placebo (in words): 0.5 mg once daily; for Total primary endpoint events, Rate Ratio (95% CI), Negative binomial model: marginal rate ratio
Method: We performed a randomized, double-blind trial involving patients recruited within 30 days after a myocardial infarction. The patients were randomly assigned to receive either low-dose colchicine (0.5 mg once daily) or placebo. A total of 4745 patients were enrolled; 2366 patients were assigned to the colchicine group, and 2379 to the placebo group. Patients were followed for a median of 22.6 months.
The primary efficacy end point was a composite of death from cardiovascular causes, resuscitated cardiac arrest, myocardial infarction, stroke, or urgent hospitalization for angina leading to coronary revascularization. The components of the primary end point and safety were also assessed.
In this randomized, double-blind, placebo-controlled, investigator-initiated trial, we assigned patients in a 1:1 ratio to receive either colchicine (at a dose of 0.5 mg once daily) or placebo. The trial protocol, available at NEJM.org, was designed by a trial steering committee. The protocol was approved by the institutional review board at each of the 167 centers in the 12 countries that participated in the trial (available at NEJM.org). All trial support activities, including project coordination, data management, site monitoring, and statistical oversight and analyses, were performed at the Montreal Health Innovations Coordinating Center. Potential trial end-point events were adjudicated by an independent clinical end-point committee composed of experienced cardiologists and neurologists who were unaware of the trial-group assignments. The trial was overseen by a data and safety monitoring board of independent experts. The trial medication and matching placebo were provided by Pharmascience.
Patients were excluded if they had severe heart failure, a left ventricular ejection fraction of less than 35%, stroke within the previous 3 months, a type 2 index myocardial infarction, coronary-bypass surgery either within the previous 3 years or planned, a history of noncutaneous cancer within the previous 3 years, inflammatory bowel disease or chronic diarrhea, neuromuscular disease or a nontransient creatine kinase level that was greater than three times the upper limit of the normal range (unless due to infarction), clinically significant nontransient hematologic abnormalities, severe renal disease with a serum creatinine level that was greater than two times the upper limit of the normal range; severe hepatic disease, drug or alcohol abuse, current or planned long-term systemic glucocorticoid therapy, or a history of clinically significant sensitivity to colchicine. (Details regarding eligibility criteria are provided herein.)
The primary efficacy end point was a composite of death from cardiovascular causes, resuscitated cardiac arrest, myocardial infarction, stroke, or urgent hospitalization for angina leading to coronary revascularization in a time-to-event analysis.
The secondary end points consisted of the components of the primary efficacy end point; a composite of death from cardiovascular causes, resuscitated cardiac arrest, myocardial infarction, or stroke; and total mortality in time-to-event analyses. Coronary revascularization, hospitalization for heart failure, atrial fibrillation, and deep venous thrombosis or pulmonary embolus were prespecified as exploratory end points in the protocol.
The efficacy analyses were conducted with the use of positively adjudicated data and according to the intention-to-treat principle. The primary end point was compared between the two trial groups with the use of a log-rank test, and the hazard ratio from a Cox proportional-hazards model, with a 95% confidence interval, was calculated. A Cox proportional-hazards model with adjustment for important baseline characteristics was also used as prespecified in the protocol.
The analysis of the primary end point was repeated in the per-protocol population (i.e., patients without major protocol deviations). […]

[1] = ITT, N=2366, first and recurrent events
[2] = colchicine vs placebo, ITT, listed as colchicine
[3] = colchicine vs placebo, per-protocol population
[4] = per-protocol population, N=2260

COc1cc2c(c(OC)c1OC)-c1ccc(OC)c(=O)cc1[C@@H](NC(C)=O)CC2 [Colchicine, colchicine]
risk of ischemic cardiovascular events / primary composite efficacy end point versus placebo (in words): statistically significant lower risk of ischemic cardiovascular events than placebo
risk of ischemic cardiovascular events / primary composite efficacy end point versus placebo (in words) (listed as colchicine): significantly lower percentage of patients with ischemic cardiovascular events than placebo
Time to first primary endpoint, Adjusted Hazard Ratio (95% CI) (Colchicine vs. Placebo, multivariable Cox regression adjusted for age, diabetes, prior revascularization, prior heart failure): 0.78 (0.62-0.98)
Atrial fibrillation, number of patients (ITT, N=2366, 0.5 mg once daily): 36
Atrial fibrillation, percent (ITT, N=2366, 0.5 mg once daily): 1.5%
Death from cardiovascular causes, number of patients (ITT, N=2366, 0.5 mg once daily): 20
Death from cardiovascular causes, percent (ITT, N=2366, 0.5 mg once daily): 0.8%
Death, number of patients (ITT, N=2366, 0.5 mg once daily): 43
Death, percent (ITT, N=2366, 0.5 mg once daily): 1.8%
Deep venous thrombosis or pulmonary embolus, number of patients (ITT, N=2366, 0.5 mg once daily): 10
Deep venous thrombosis or pulmonary embolus, percent (ITT, N=2366, 0.5 mg once daily): 0.4%
Myocardial infarction, number of patients (ITT, N=2366, 0.5 mg once daily): 89
Myocardial infarction, percent (ITT, N=2366, 0.5 mg once daily): 3.8%
Primary composite end point, number of patients (ITT, N=2366, 0.5 mg once daily): 131
Primary composite end point, percent of patients (ITT, N=2366, 0.5 mg once daily): 5.5%
Resuscitated cardiac arrest, number of patients (ITT, N=2366, 0.5 mg once daily): 5
Resuscitated cardiac arrest, percent (ITT, N=2366, 0.5 mg once daily): 0.2%
Secondary composite end point (CV death, resuscitated cardiac arrest, MI, stroke), number of patients (ITT, N=2366, 0.5 mg once daily): 111
Secondary composite end point, percent (ITT, N=2366, 0.5 mg once daily): 4.7%
Stroke, number of patients (ITT, N=2366, 0.5 mg once daily): 5
Stroke, percent (ITT, N=2366, 0.5 mg once daily): 0.2%
Urgent hospitalization for angina leading to revascularization, number of patients (ITT, N=2366, 0.5 mg once daily): 25
Urgent hospitalization for angina leading to revascularization, percent (ITT, N=2366, 0.5 mg once daily): 1.1%
Total number of primary endpoint events (first and recurrent) (ITT, N=2366, 52949 patient-months of follow-up): 154
Number of patients with 0 primary endpoint events [1]: 2235
Number of patients with 1 primary endpoint event [1]: 111
Number of patients with 2 primary endpoint events [1]: 18
Number of patients with 3 primary endpoint events [1]: 1
Number of patients with 4 primary endpoint events [1]: 1
Rate of primary endpoint events per 100 patient-months [1]: 0.29 per 100 patient-months
Atrial fibrillation, Hazard Ratio (95% CI) (colchicine vs placebo, ITT): 0.93 (0.59-1.46)
Death from cardiovascular causes, Hazard Ratio (95% CI) (colchicine vs placebo, ITT): 0.84 (0.46-1.52)
Death, Hazard Ratio (95% CI) (colchicine vs placebo, ITT): 0.98 (0.64-1.49)
Deep venous thrombosis or pulmonary embolus, Hazard Ratio (95% CI) (colchicine vs placebo, ITT): 1.43 (0.54-3.75)
Myocardial infarction, Hazard Ratio (95% CI) (colchicine vs placebo, ITT): 0.91 (0.68-1.21)
Resuscitated cardiac arrest, Hazard Ratio (95% CI) (colchicine vs placebo, ITT): 0.83 (0.25-2.73)
Secondary composite end point, Hazard Ratio (95% CI) (colchicine vs placebo, ITT): 0.85 (0.66-1.10)
Stroke, Hazard Ratio (95% CI) (colchicine vs placebo, ITT): 0.26 (0.10-0.70)
Total primary endpoint events, Hazard Ratio (95% CI), Andersen-Gill model (colchicine vs placebo, ITT): 0.69 (0.54; 0.88)
Total primary endpoint events, Hazard Ratio (95% CI), WLW model 1st Event (colchicine vs placebo, ITT): 0.77 (0.61; 0.96)
Total primary endpoint events, Hazard Ratio (95% CI), WLW model 2nd Event (colchicine vs placebo, ITT): 0.73 (0.48; 1.11)
Total primary endpoint events, Hazard Ratio (95% CI), WLW model 3rd Event (colchicine vs placebo, ITT): 0.64 (0.37; 1.10)
Total primary endpoint events, Hazard Ratio (95% CI), WLW model Average (colchicine vs placebo, ITT): 0.77 (0.61; 0.96)
Urgent hospitalization for angina leading to revascularization, Hazard Ratio (95% CI) (colchicine vs placebo, ITT): 0.50 (0.31-0.81)
Total primary endpoint events, Rate Ratio (95% CI), Negative binomial model (colchicine vs placebo, ITT): 0.66 (0.51; 0.86)
Total primary endpoint events, Rate Ratio (95% CI), Negative binomial model [2]: 0.66
Primary composite end point, Hazard Ratio (95% CI) (colchicine vs placebo, ITT, time to first event): 0.77
Death from cardiovascular causes, Hazard Ratio (95% CI) [2]: 0.84
Myocardial infarction, Hazard Ratio (95% CI) [2]: 0.91
Resuscitated cardiac arrest, Hazard Ratio (95% CI) [2]: 0.83
Secondary composite end point, Hazard Ratio (95% CI) [2]: 0.85
Stroke, Hazard Ratio (95% CI) [2]: 0.26
Urgent hospitalization for angina leading to revascularization, Hazard Ratio (95% CI) [2]: 0.50
Primary endpoint, hazard ratio (colchicine vs placebo, men, per-protocol population): 0.70 (0.52; 0.93)
MI, Hazard Ratio (95% CI) [3]: 0.84 (0.62-1.14)
Primary endpoint, Hazard Ratio (95% CI) [3]: 0.71 (0.56-0.90)
Resuscitated cardiac arrest, Hazard Ratio (95% CI) [3]: 1.00 (0.29-3.46)
Stroke, Hazard Ratio (95% CI) [3]: 0.26 (0.10-0.71)
Urgent hospitalization for angina requiring revascularization, Hazard Ratio (95% CI) [3]: 0.47 (0.28-0.78)
Primary endpoint, Hazard Ratio (95% CI) (colchicine vs placebo, per-protocol population, listed as colchicine): 0.71
Primary efficacy composite endpoint, Hazard ratio (colchicine vs placebo, subgroup Active smoker): 0.93
Primary efficacy composite endpoint, Hazard ratio (colchicine vs placebo, subgroup Female): 0.99
Primary efficacy composite endpoint, Hazard ratio (colchicine vs placebo, subgroup History of diabetes No): 0.85
Primary efficacy composite endpoint, Hazard ratio (colchicine vs placebo, subgroup History of diabetes Yes): 0.65
Primary efficacy composite endpoint, Hazard ratio (colchicine vs placebo, subgroup History of hypertension No): 0.80
Primary efficacy composite endpoint, Hazard ratio (colchicine vs placebo, subgroup History of hypertension Yes): 0.76
Primary efficacy composite endpoint, Hazard ratio (colchicine vs placebo, subgroup Male): 0.70
Primary efficacy composite endpoint, Hazard ratio (colchicine vs placebo, subgroup Non-smoker): 0.90
Primary efficacy composite endpoint, Hazard ratio (colchicine vs placebo, subgroup Previous smoker): 0.59
Primary efficacy composite endpoint, Hazard ratio (colchicine vs placebo, subgroup Prior MI No): 0.68
Primary efficacy composite endpoint, Hazard ratio (colchicine vs placebo, subgroup Prior MI Yes): 1.05
Primary efficacy composite endpoint, Hazard ratio (colchicine vs placebo, subgroup Prior PCI or CABG No): 0.72
Primary efficacy composite endpoint, Hazard ratio (colchicine vs placebo, subgroup Prior PCI or CABG Yes): 0.91
Primary efficacy composite endpoint, Hazard ratio (colchicine vs placebo, subgroup Prior stroke or TIA No): 0.76
Primary efficacy composite endpoint, Hazard ratio (colchicine vs placebo, subgroup Prior stroke or TIA Yes): 1.09
Primary efficacy composite endpoint, Hazard ratio (colchicine vs placebo, subgroup White blood cell count Above median): 0.80
Primary efficacy composite endpoint, Hazard ratio (colchicine vs placebo, subgroup White blood cell count Below median): 0.85
Primary endpoint, hazard ratio (colchicine vs placebo, women, per-protocol population): 0.81 (0.47; 1.41)
MI, % [4]: 3.4%
MI, no. of patients [4]: 77
Primary endpoint, % of patients [4]: 5.1%
Primary endpoint, no. of patients [4]: 115
Resuscitated cardiac arrest, % [4]: 0.2%
Resuscitated cardiac arrest, no. of patients [4]: 5
Stroke, % [4]: 0.2%
Stroke, no. of patients [4]: 5
Urgent hospitalization for angina requiring revascularization, % [4]: 1.0%
Urgent hospitalization for angina requiring revascularization, no. of patients [4]: 22
Primary efficacy composite endpoint, % of patients with event (subgroup Active smoker): 5.4%
Primary efficacy composite endpoint, no. of patients with event (subgroup Active smoker, total 708): 38
Primary efficacy composite endpoint, % of patients with event (subgroup Female): 7.8%
Primary efficacy composite endpoint, no. of patients with event (subgroup Female, total 472): 37
Primary efficacy composite endpoint, % of patients with event (subgroup History of diabetes No): 4.8%
Primary efficacy composite endpoint, no. of patients with event (subgroup History of diabetes No, total 1904): 91
Primary efficacy composite endpoint, % of patients with event (subgroup History of diabetes Yes): 8.7%
Primary efficacy composite endpoint, no. of patients with event (subgroup History of diabetes Yes, total 462): 40
Primary efficacy composite endpoint, % of patients with event (subgroup History of hypertension No): 4.1%
Primary efficacy composite endpoint, no. of patients with event (subgroup History of hypertension No, total 1181): 48
Primary efficacy composite endpoint, % of patients with event (subgroup History of hypertension Yes): 7.0%
Primary efficacy composite endpoint, no. of patients with event (subgroup History of hypertension Yes, total 1185): 83
Primary efficacy composite endpoint, % of patients with event (subgroup Male): 5.0%
Primary efficacy composite endpoint, no. of patients with event (subgroup Male, total 1894): 94
Primary efficacy composite endpoint, % of patients with event (subgroup Non-smoker): 6.0%
Primary efficacy composite endpoint, no. of patients with event (subgroup Non-smoker, total 787): 47
Primary efficacy composite endpoint, % of patients with event (subgroup Previous smoker): 5.3%
Primary efficacy composite endpoint, no. of patients with event (subgroup Previous smoker, total 871): 46
Primary efficacy composite endpoint, % of patients with event (subgroup Prior MI No): 4.3%
Primary efficacy composite endpoint, no. of patients with event (subgroup Prior MI No, total 1996): 85
Primary efficacy composite endpoint, % of patients with event (subgroup Prior MI Yes): 12.4%
Primary efficacy composite endpoint, no. of patients with event (subgroup Prior MI Yes, total 370): 46
Primary efficacy composite endpoint, % of patients with event (subgroup Prior PCI or CABG No): 4.3%
Primary efficacy composite endpoint, no. of patients with event (subgroup Prior PCI or CABG No, total 1947): 83
Primary efficacy composite endpoint, % of patients with event (subgroup Prior PCI or CABG Yes): 11.5%
Primary efficacy composite endpoint, no. of patients with event (subgroup Prior PCI or CABG Yes, total 419): 48
Primary efficacy composite endpoint, % of patients with event (subgroup Prior stroke or TIA No): 5.3%
Primary efficacy composite endpoint, no. of patients with event (subgroup Prior stroke or TIA No, total 2311): 123
Primary efficacy composite endpoint, % of patients with event (subgroup Prior stroke or TIA Yes): 14.5%
Primary efficacy composite endpoint, no. of patients with event (subgroup Prior stroke or TIA Yes, total 55): 8
Primary efficacy composite endpoint, % of patients with event (subgroup White blood cell count Above median): 5.3%
Primary efficacy composite endpoint, no. of patients with event (subgroup White blood cell count Above median, total 637): 34
Primary efficacy composite endpoint, % of patients with event (subgroup White blood cell count Below median): 6.2%
Primary efficacy composite endpoint, no. of patients with event (subgroup White blood cell count Below median (8.64 × 10^3/μL), total 660): 41
